Data taken from PubChem BioAssay (NCI).
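Step 1: Grow cells in 96-well plates. Step 2: Expose to compound for 48 hours at 5 concentrations. Step 3: Interpolate endpoints linearly; if unreached, use highest concentration. GI50 marks 50% less growth. TGI denotes the concentration required for complete inhibition of growth.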

Tests used:
Test in all cases: NCI-60 cell line screen, 48 h
MCF7 breast = system: MCF7 breast
786-0 renal = system: 786-0 renal
SK-MEL-2 melanoma = system: SK-MEL-2 melanoma
HS 578T breast = system: HS 578T breast
HCC-2998 colon = system: HCC-2998 colon
SF-268 CNS = system: SF-268 CNS
LOX IMVI melanoma = system: LOX IMVI melanoma
K-562 leukemia = system: K-562 leukemia
U251 CNS = system: U251 CNS
HL-60(TB) leukemia = system: HL-60(TB) leukemia
SF-539 CNS = system: SF-539 CNS
HOP-92 NSCLC = system: HOP-92 NSCLC
UACC-62 melanoma = system: UACC-62 melanoma
NCI/ADR-RES ovarian = system: NCI/ADR-RES ovarian
SNB-75 CNS = system: SNB-75 CNS
SK-MEL-5 melanoma = system: SK-MEL-5 melanoma
A498 renal = system: A498 renal
TK-10 renal = system: TK-10 renal
BT-549 breast = system: BT-549 breast
PC-3 prostate = system: PC-3 prostate
OVCAR-8 ovarian = system: OVCAR-8 ovarian
NCI-H522 lung = system: NCI-H522 lung
EKVX NSCLC = system: EKVX NSCLC
HOP-62 NSCLC = system: HOP-62 NSCLC
MOLT-4 leukemia = system: MOLT-4 leukemia
KM12 colon = system: KM12 colon
SNB-19 CNS = system: SNB-19 CNS
HCT-15 colon = system: HCT-15 colon
RXF 393 renal = system: RXF 393 renal
NCI-H226 lung = system: NCI-H226 lung
OVCAR-5 ovarian = system: OVCAR-5 ovarian
IGROV1 ovarian = system: IGROV1 ovarian
NCI-H23 lung = system: NCI-H23 lung
SF-295 CNS = system: SF-295 CNS
SK-MEL-28 melanoma = system: SK-MEL-28 melanoma
OVCAR-3 ovarian = system: OVCAR-3 ovarian
HT29 colon = system: HT29 colon
MDA-MB-231 breast = system: MDA-MB-231 breast
SN12C renal = system: SN12C renal
SK-OV-3 ovarian = system: SK-OV-3 ovarian
A549 NSCLC = system: A549 NSCLC
UACC-257 melanoma = system: UACC-257 melanoma
MALME-3M melanoma = system: MALME-3M melanoma
DU-145 prostate = system: DU-145 prostate
NCI-H460 lung = system: NCI-H460 lung
OVCAR-4 ovarian = system: OVCAR-4 ovarian
CCRF-CEM leukemia = system: CCRF-CEM leukemia
COLO 205 colon = system: COLO 205 colon
MDA-MB-435 = system: MDA-MB-435
UO-31 renal = system: UO-31 renal
M14 melanoma = system: M14 melanoma
CAKI-1 renal = system: CAKI-1 renal
RPMI-8226 leukemia = system: RPMI-8226 leukemia
ACHN renal = system: ACHN renal
HCT-116 colon = system: HCT-116 colon
SW-620 colon = system: SW-620 colon

COc1ccc(-c2nnc(COc3ccc(Cl)cc3Cl)o2)cc1OC
GI50 (MCF7 breast): 5.45 µM
TGI (MCF7 breast): > 100 µM
GI50 (786-0 renal): 1.8 µM
TGI (786-0 renal): 3.32 µM
GI50 (SK-MEL-2 melanoma): 7.79 µM
TGI (SK-MEL-2 melanoma): 37.5 µM
GI50 (HS 578T breast): 3.73 µM
TGI (HS 578T breast): 96.2 µM
GI50 (HCC-2998 colon): > 100 µM
TGI (HCC-2998 colon): > 100 µM
GI50 (SF-268 CNS): 5.95 µM
TGI (SF-268 CNS): 96.7 µM
GI50 (LOX IMVI melanoma): 3.16 µM
TGI (LOX IMVI melanoma): > 100 µM
GI50 (K-562 leukemia): > 100 µM
TGI (K-562 leukemia): > 100 µM
GI50 (U251 CNS): 4.36 µM
TGI (U251 CNS): 17.6 µM
GI50 (HL-60(TB) leukemia): > 100 µM
TGI (HL-60(TB) leukemia): > 100 µM
GI50 (SF-539 CNS): 5.52 µM
TGI (SF-539 CNS): 41.1 µM
GI50 (HOP-92 NSCLC): 2.16 µM
TGI (HOP-92 NSCLC): 4.91 µM
GI50 (UACC-62 melanoma): 3.35 µM
TGI (UACC-62 melanoma): > 100 µM
GI50 (NCI/ADR-RES ovarian): 3.44 µM
TGI (NCI/ADR-RES ovarian): > 100 µM
GI50 (SNB-75 CNS): 1.61 µM
TGI (SNB-75 CNS): 3.36 µM
GI50 (SK-MEL-5 melanoma): 3.27 µM
TGI (SK-MEL-5 melanoma): > 100 µM
GI50 (A498 renal): 2.78 µM
TGI (A498 renal): 7.22 µM
GI50 (TK-10 renal): 3.15 µM
TGI (TK-10 renal): 6.61 µM
GI50 (BT-549 breast): 16.9 µM
TGI (BT-549 breast): 76.5 µM
GI50 (PC-3 prostate): 6.4 µM
TGI (PC-3 prostate): > 100 µM
GI50 (OVCAR-8 ovarian): 4.02 µM
TGI (OVCAR-8 ovarian): > 100 µM
GI50 (NCI-H522 lung): 3.28 µM
TGI (NCI-H522 lung): 18.3 µM
GI50 (EKVX NSCLC): 4.39 µM
TGI (EKVX NSCLC): > 100 µM
GI50 (HOP-62 NSCLC): 2.37 µM
TGI (HOP-62 NSCLC): 7.9 µM
GI50 (MOLT-4 leukemia): 8.3 µM
TGI (MOLT-4 leukemia): > 100 µM
GI50 (KM12 colon): > 100 µM
TGI (KM12 colon): > 100 µM
GI50 (SNB-19 CNS): 6.69 µM
TGI (SNB-19 CNS): > 100 µM
GI50 (HCT-15 colon): > 100 µM
TGI (HCT-15 colon): > 100 µM
GI50 (RXF 393 renal): 2.14 µM
TGI (RXF 393 renal): 4.59 µM
GI50 (NCI-H226 lung): 3.42 µM
TGI (NCI-H226 lung): 30.3 µM
GI50 (OVCAR-5 ovarian): 3.53 µM
TGI (OVCAR-5 ovarian): > 100 µM
GI50 (IGROV1 ovarian): 4.22 µM
TGI (IGROV1 ovarian): > 100 µM
GI50 (NCI-H23 lung): 6.18 µM
TGI (NCI-H23 lung): > 100 µM
GI50 (SF-295 CNS): 13.5 µM
TGI (SF-295 CNS): 70.6 µM

C=C1CC2(OC1=O)C(=O)N(C)c1ccc(I)cc12 (configuration not stated)
GI50 (786-0 renal): 1.65 µM
TGI (786-0 renal): 3.18 µM
GI50 (SK-MEL-2 melanoma): 2.16 µM
TGI (SK-MEL-2 melanoma): 6.28 µM
GI50 (SK-MEL-28 melanoma): 1.73 µM
TGI (SK-MEL-28 melanoma): 3.6 µM
GI50 (HS 578T breast): 3.26 µM
TGI (HS 578T breast): > 22.7 µM
GI50 (HCC-2998 colon): 2.69 µM
TGI (HCC-2998 colon): 7.04 µM
GI50 (SF-268 CNS): 2.01 µM
TGI (SF-268 CNS): 5.01 µM
GI50 (OVCAR-3 ovarian): 0.422 µM
TGI (OVCAR-3 ovarian): 1.43 µM
GI50 (HT29 colon): 1.03 µM
GI50 (LOX IMVI melanoma): 1.14 µM
TGI (LOX IMVI melanoma): 2.52 µM
GI50 (K-562 leukemia): 1.31 µM
TGI (K-562 leukemia): > 23.7 µM
GI50 (U251 CNS): 1.81 µM
TGI (U251 CNS): 5.21 µM
GI50 (HL-60(TB) leukemia): 0.337 µM
TGI (HL-60(TB) leukemia): 1.54 µM
GI50 (MDA-MB-231 breast): 1.81 µM
TGI (MDA-MB-231 breast): 5.31 µM
GI50 (SN12C renal): 1.71 µM
TGI (SN12C renal): 4.02 µM
GI50 (SF-539 CNS): 1.38 µM
TGI (SF-539 CNS): 2.8 µM
GI50 (HOP-92 NSCLC): 0.659 µM
TGI (HOP-92 NSCLC): 2.69 µM
GI50 (SK-OV-3 ovarian): 9.95 µM
TGI (SK-OV-3 ovarian): 22.5 µM
GI50 (UACC-62 melanoma): 1.25 µM
TGI (UACC-62 melanoma): 2.69 µM
GI50 (NCI/ADR-RES ovarian): 1.85 µM
TGI (NCI/ADR-RES ovarian): 4.68 µM
GI50 (SNB-75 CNS): 3.69 µM
TGI (SNB-75 CNS): 12.7 µM
GI50 (SK-MEL-5 melanoma): 2.26 µM
TGI (SK-MEL-5 melanoma): 6.37 µM
GI50 (A498 renal): 2.5 µM
TGI (A498 renal): 10.2 µM
GI50 (A549 NSCLC): 6.23 µM
TGI (A549 NSCLC): 22.5 µM
GI50 (TK-10 renal): 1.44 µM
TGI (TK-10 renal): 3.17 µM
GI50 (BT-549 breast): 1.56 µM
TGI (BT-549 breast): 4.19 µM
GI50 (PC-3 prostate): 2.29 µM
TGI (PC-3 prostate): 7.86 µM
GI50 (OVCAR-8 ovarian): 1.76 µM
TGI (OVCAR-8 ovarian): 4.9 µM
GI50 (NCI-H522 lung): 0.444 µM
TGI (NCI-H522 lung): 1.8 µM
GI50 (UACC-257 melanoma): 0.909 µM
TGI (UACC-257 melanoma): 2.49 µM
GI50 (EKVX NSCLC): 1.66 µM
TGI (EKVX NSCLC): 8.15 µM
GI50 (HOP-62 NSCLC): 12.9 µM
TGI (HOP-62 NSCLC): 27.7 µM
GI50 (MOLT-4 leukemia): 0.548 µM
TGI (MOLT-4 leukemia): 3.45 µM
GI50 (MALME-3M melanoma): 0.272 µM
TGI (MALME-3M melanoma): 1.93 µM
GI50 (DU-145 prostate): 0.941 µM
TGI (DU-145 prostate): 2.27 µM
GI50 (NCI-H460 lung): 2.75 µM
TGI (NCI-H460 lung): 11.1 µM
GI50 (OVCAR-4 ovarian): 1.27 µM
TGI (OVCAR-4 ovarian): 5.43 µM
GI50 (KM12 colon): 3.37 µM
TGI (KM12 colon): 8.55 µM
GI50 (SNB-19 CNS): 6.98 µM
TGI (SNB-19 CNS): 20.2 µM
GI50 (HCT-15 colon): 0.583 µM
TGI (HCT-15 colon): 1.97 µM
GI50 (RXF 393 renal): 0.481 µM
TGI (RXF 393 renal): 1.18 µM
GI50 (CCRF-CEM leukemia): 1.06 µM
TGI (CCRF-CEM leukemia): > 100 µM
GI50 (NCI-H226 lung): 2.31 µM
TGI (NCI-H226 lung): 9.9 µM
GI50 (COLO 205 colon): 0.841 µM
TGI (COLO 205 colon): 2.17 µM
GI50 (MDA-MB-435): 1.57 µM
TGI (MDA-MB-435): 5.49 µM
GI50 (UO-31 renal): 0.622 µM
TGI (UO-31 renal): 2.03 µM
GI50 (M14 melanoma): 1.49 µM
TGI (M14 melanoma): 3.03 µM
GI50 (CAKI-1 renal): 0.836 µM
TGI (CAKI-1 renal): 2.79 µM
GI50 (RPMI-8226 leukemia): 0.558 µM
TGI (RPMI-8226 leukemia): 2.53 µM
GI50 (OVCAR-5 ovarian): 2.13 µM
TGI (OVCAR-5 ovarian): 4.84 µM
GI50 (IGROV1 ovarian): 1.23 µM
TGI (IGROV1 ovarian): 4.56 µM
GI50 (ACHN renal): 0.624 µM
TGI (ACHN renal): 1.83 µM
GI50 (NCI-H23 lung): 1.74 µM
TGI (NCI-H23 lung): 4.58 µM
GI50 (HCT-116 colon): 0.348 µM
TGI (HCT-116 colon): 1.42 µM
GI50 (SF-295 CNS): 2.3 µM
TGI (SF-295 CNS): 8.16 µM
GI50 (SW-620 colon): 0.566 µM
TGI (SW-620 colon): 2.04 µM
